Tests used:
Assay in all cases: relative viability (nuclei count vs DMSO), 5 days (fraction); higher = more cells survive
[1] = compound: COc1cc(Nc2c(C#N)cnc3cc(OCCCN4CCN(C)CC4)c(OC)cc23)c(Cl)cc1Cl [Bosutinib] + CC1(C)CCC(c2ccc(Cl)cc2)=C(CN2CCN(c3ccc(C(=O)NS(=O)(=O)c4ccc(N[C@H](CCN5CCOCC5)CSc5ccccc5)c(S(=O)(=O)C(F)(F)F)c4)cc3)CC2)C1 [Navitoclax] (partner 0.5 µM)
Summary of the method: (§1)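 Relative viability equals treated-well nuclei counts divided by vehicle-well nuclei counts. Counts came from 4× images of lung cancer cell lines grown in 1536-well plates for 5 days after pin-tool dosing on the day after seeding. Dosing used one drug alone or a fixed anchor-drug dose plus five library-drug doses (not always all listed) in √10 steps, and values are medians of duplicate plates.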

[2] = compound: COc1cc(Nc2c(C#N)cnc3cc(OCCCN4CCN(C)CC4)c(OC)cc23)c(Cl)cc1Cl [Bosutinib] + COc1cc2c(Oc3ccc(NC(=O)C4(C(=O)Nc5ccc(F)cc5)CC4)cc3F)ccnc2cc1OCCCN1CCOCC1 [Foretinib] (partner 0.25 µM)
Summary of the method: as §1

[3] = compound: COc1cc(Nc2c(C#N)cnc3cc(OCCCN4CCN(C)CC4)c(OC)cc23)c(Cl)cc1Cl [Bosutinib] + COc1cccc2cc(-c3nc([C@H]4CC[C@H](C(=O)O)CC4)n4ncnc(N)c34)[nH]c12 [OSI-027] (partner 0.5 µM)
Summary of the method: as §1

[4] = compound: COc1cc(Nc2c(C#N)cnc3cc(OCCCN4CCN(C)CC4)c(OC)cc23)c(Cl)cc1Cl [Bosutinib] + Cc1cc(Nc2cc(N3CCN(C)CC3)nc(Sc3ccc(NC(=O)C4CC4)cc3)n2)n[nH]1 [Tozasertib] (partner 0.1 µM)
Summary of the method: as §1

[5] = compound: COc1cc(Nc2c(C#N)cnc3cc(OCCCN4CCN(C)CC4)c(OC)cc23)c(Cl)cc1Cl [Bosutinib] + Nc1nc2[nH]cc(CCc3ccc(C(=O)N[C@@H](CCC(=O)O)C(=O)O)cc3)c2c(=O)[nH]1 [Pemetrexed] (partner 0.2 µM)
Summary of the method: as §1

Row | Cell Line | relative viability ([1]; first compound 0.01 µM) | relative viability ([1]; first compound 0.03162 µM) | relative viability ([1]; first compound 0.1 µM) | relative viability ([1]; first compound 1 µM) | relative viability ([2]; first compound 0.01 µM) | relative viability ([2]; first compound 0.03162 µM) | relative viability ([2]; first compound 0.1 µM) | relative viability ([2]; first compound 1 µM) | relative viability ([3]; first compound 0.01 µM) | relative viability ([3]; first compound 0.03162 µM) | relative viability ([3]; first compound 0.1 µM) | relative viability ([3]; first compound 1 µM) | relative viability ([4]; first compound 0.01 µM) | relative viability ([4]; first compound 0.03162 µM) | relative viability ([4]; first compound 0.1 µM) | relative viability ([4]; first compound 1 µM) | relative viability ([5]; first compound 0.01 µM) | relative viability ([5]; first compound 0.03162 µM) | relative viability ([5]; first compound 0.1 µM) | relative viability ([5]; first compound 1 µM)
1 | HCC-78 | 0.798 | 0.737 | 0.752 | 0.661 | 0.553 | 0.506 | 0.571 | 0.52 | 0.361 | 0.362 | 0.353 | 0.358 | 0.406 | 0.327 | 0.439 | 0.384 | 0.893 | 0.916 | 0.936 | 0.859
2 | HCC-366 | 1.08 | 1.05 | 0.997 | 0.49 | 0.884 | 0.97 | 0.971 | 0.879 | 0.981 | 0.898 | 0.821 | 0.405 | 0.161 | 0.142 | 0.104 | 0.0934 | 0.167 | 0.158 | 0.162 | 0.166
3 | HCC-827 | 1 | 0.986 | 1.04 | 0.933 | 0.965 | 1.04 | 1.02 | 0.203 | 0.784 | 0.828 | 0.872 | 0.574 | 0.406 | 0.442 | 0.436 | 0.166 | 0.248 | 0.282 | 0.273 | 0.231
4 | HOP-62 | 0.901 | 0.982 | 1.04 | 1.09 | 1.11 | 0.965 | 1.13 | 1.12 | 0.801 | 0.848 | 0.942 | 0.875 | 0.394 | 0.411 | 0.35 | 0.381 | 0.297 | 0.414 | 0.317 | 0.317
5 | IA-LM | 0.779 | 0.816 | 0.842 | 0.764 | 1.1 | 1.18 | 1.14 | 0.982 | – | – | – | – | – | – | – | – | – | – | – | –
6 | LC-2-ad | 0.476 | 0.54 | 0.52 | 0.468 | 0.982 | 0.979 | 0.948 | 0.61 | 0.878 | 0.917 | 0.806 | 0.847 | 0.469 | 0.401 | 0.506 | 0.482 | 0.266 | 0.306 | 0.287 | 0.27
7 | LCLC-97TM1 | 0.541 | 0.464 | 0.595 | 0.483 | 0.902 | 0.902 | 0.904 | 0.894 | 0.545 | 0.609 | 0.548 | 0.56 | 0.461 | 0.267 | 0.244 | 0.362 | 0.18 | 0.181 | 0.211 | 0.228
8 | LCLC-103H | – | – | – | – | 0.844 | 0.674 | 0.804 | 0.878 | 0.458 | 0.438 | 0.417 | 0.496 | 0.486 | 0.497 | 0.48 | 0.484 | 0.442 | 0.516 | 0.5 | 0.449
9 | LK-2 | 0.955 | 0.943 | 0.838 | 0.74 | 1.1 | 1.49 | 1.19 | 0.914 | 0.256 | 0.253 | 0.192 | 0.185 | 0.194 | 0.168 | 0.191 | 0.178 | 0.235 | 0.281 | 0.321 | 0.266
10 | LOU-NH91 | 0.755 | 0.713 | 0.666 | 0.391 | 0.912 | 0.929 | 0.845 | 0.538 | 0.742 | 0.707 | 0.728 | 0.51 | 0.64 | 0.645 | 0.607 | 0.538 | 0.394 | 0.395 | 0.378 | 0.4
11 | LU99A | 0.769 | 0.878 | 0.782 | 1.06 | 0.853 | 1.04 | 0.967 | 1.07 | 0.313 | 0.332 | 0.32 | 0.343 | 0.275 | 0.276 | 0.291 | 0.311 | 0.2 | 0.208 | 0.193 | 0.182
12 | NCI-H358 | – | – | – | – | 0.896 | 0.705 | 0.648 | 0.494 | 0.786 | 0.742 | 0.787 | 0.545 | 0.101 | 0.106 | 0.109 | 0.113 | 0.152 | 0.163 | 0.18 | 0.163
13 | NCI-H522 | – | – | – | – | – | – | – | – | 0.734 | 0.641 | 0.682 | 0.69 | 0.564 | 0.504 | 0.604 | 0.485 | 0.982 | 0.985 | 0.86 | 0.863
14 | NCI-H650 | – | – | – | – | 1.05 | 1 | 1.09 | 1.04 | 0.634 | 0.502 | 0.588 | 0.628 | 0.74 | 0.772 | 0.721 | 0.801 | 0.893 | 0.846 | 0.972 | 0.953
15 | NCI-H661 | – | – | – | – | 1.07 | 0.995 | 0.968 | 0.596 | 0.682 | 0.804 | 0.744 | 0.56 | 0.34 | 0.362 | 0.385 | 0.425 | 0.919 | 0.908 | 0.952 | 0.741
16 | NCI-H727 | 0.429 | 0.519 | 0.437 | 0.291 | 0.91 | 0.859 | 0.639 | 0.568 | 0.605 | 0.817 | 0.564 | 0.529 | 0.577 | 0.598 | 0.549 | 0.441 | – | – | – | –
17 | NCI-H1792 | 0.68 | 0.682 | 0.67 | 0.619 | – | – | – | – | 0.692 | 0.706 | 0.751 | 0.688 | – | – | – | – | 0.902 | 0.792 | 0.891 | 0.764
18 | SW 900 | – | – | – | – | 0.806 | – | 1.04 | 0.721 | 0.51 | – | 0.591 | 0.455 | 0.521 | – | 0.586 | 0.507 | 0.465 | 0.501 | 0.462 | 0.39

From the supplement of paper PMC10307832
